Reference: ChEMBL document CHEMBL3745645, “Synthesis, in vitro antitumor activity, dihydrofolate reductase inhibition, DNA intercalation and structure-activity relationship studies of 1,3,5-triazine analogues” (Bioorg Med Chem Lett, 2016)
Calls of active or inactive are those of the source. The rule behind the calls is not given here.

Legend:
Type in all cases: functional
[1] = test system: CAKI-1; assay: Cytotoxicity against human Caki1 cells at 10 uM after 48 hrs by SRB assay
[2] = Cytotoxicity against human RXF393 cells at 10 uM after 48 hrs by SRB assay; conditions: RXF 393, 48 h, read-out: GI
[3] = test system: SN12C; assay: Cytotoxicity against human SN12C cells at 10 uM after 48 hrs by SRB assay; conditions: read-out: GI
[4] = test system: TK-10; assay: Cytotoxicity against human TK10 cells at 10 uM after 48 hrs by SRB assay
[5] = Cytotoxicity against human UO31 cells at 10 uM after 48 hrs by SRB assay; conditions: UO-31, 48 h, read-out: GI
[6] = Cytotoxicity against human DU145 cells at 10 uM after 48 hrs by SRB assay; conditions: DU-145, 48 h, read-out: GI
[7] = test system: MCF7; assay: Cytotoxicity against human MCF7 cells at 10 uM after 48 hrs by SRB assay; conditions: MCF7, 48 h, read-out: GI
[8] = test system: MDA-MB-231; assay: Cytotoxicity against human MDA-MB-231 cells at 10 uM after 48 hrs by SRB assay; conditions: MDA-MB-231, 48 h, read-out: GI
[9] = test system: Hs-578T; assay: Cytotoxicity against human Hs 578T cells at 10 uM after 48 hrs by SRB assay
[10] = test system: BT-549; assay: Cytotoxicity against human BT549 cells at 10 uM after 48 hrs by SRB assay
[11] = test system: T47D; assay: Cytotoxicity against human T47D cells at 10 uM after 48 hrs by SRB assay; conditions: read-out: GI
[12] = test system: MDA-MB-468; assay: Cytotoxicity against human MDA-MB-468 cells at 10 uM after 48 hrs by SRB assay; conditions: MDA-MB-468, 48 h, read-out: GI
[13] = test system: CCRF-CEM; assay: Cytotoxicity against human CCRF-CEM cells at 10 uM after 48 hrs by SRB assay; conditions: read-out: GI
[14] = test system: HL-60(TB); assay: Cytotoxicity against human HL-60(TB) cells at 10 uM after 48 hrs by SRB assay
[15] = test system: K562; assay: Cytotoxicity against human K562 cells at 10 uM after 48 hrs by SRB assay; conditions: K562, 48 h, read-out: GI
[16] = Cytotoxicity against human RPMI8226 cells at 10 uM after 48 hrs by SRB assay; conditions: RPMI-8226, 48 h, read-out: GI
[17] = test system: SR; assay: Cytotoxicity against human SR cells at 10 uM after 48 hrs by SRB assay; conditions: read-out: GI
[18] = test system: A549; assay: Cytotoxicity against human A549 cells at 10 uM after 48 hrs by SRB assay; conditions: A549, 48 h, read-out: GI
[19] = Cytotoxicity against human HOP62 cells at 10 uM after 48 hrs by SRB assay; conditions: HOP-62, 48 h, read-out: GI
[20] = Cytotoxicity against human HOP92 cells at 10 uM after 48 hrs by SRB assay; conditions: HOP-92, 48 h, read-out: GI
[21] = test system: NCI-H226; assay: Cytotoxicity against human NCI-H226 cells at 10 uM after 48 hrs by SRB assay; conditions: NCI-H226, 48 h, read-out: GI
[22] = test system: NCI-H322M; assay: Cytotoxicity against human NCI-H322M cells at 10 uM after 48 hrs by SRB assay; conditions: read-out: GI
[23] = test system: NCI-H460; assay: Cytotoxicity against human NCI-H460 cells at 10 uM after 48 hrs by SRB assay; conditions: NCI-H460, 48 h, read-out: GI
[24] = test system: NCI-H522; assay: Cytotoxicity against human NCI-H522 cells at 10 uM after 48 hrs by SRB assay; conditions: NCI-H522, 48 h, read-out: GI
[25] = Cytotoxicity against human COLO205 cells at 10 uM after 48 hrs by SRB assay; conditions: COLO 205, 48 h, read-out: GI
[26] = test system: HCC 2998; assay: Cytotoxicity against human HCC2998 cells at 10 uM after 48 hrs by SRB assay
[27] = Cytotoxicity against human HCT116 cells at 10 uM after 48 hrs by SRB assay; conditions: HCT-116, 48 h, read-out: GI
[28] = test system: HCT-15; assay: Cytotoxicity against human HCT15 cells at 10 uM after 48 hrs by SRB assay
[29] = test system: HT-29; assay: Cytotoxicity against human HT-29 cells at 10 uM after 48 hrs by SRB assay; conditions: HT-29, 48 h, read-out: GI
[30] = test system: KM12; assay: Cytotoxicity against human KM12 cells at 10 uM after 48 hrs by SRB assay; conditions: KM12, 48 h, read-out: GI
[31] = test system: SW-620; assay: Cytotoxicity against human SW620 cells at 10 uM after 48 hrs by SRB assay
[32] = Cytotoxicity against human SF268 cells at 10 uM after 48 hrs by SRB assay; conditions: SF-268, 48 h, read-out: GI
[33] = Cytotoxicity against human SF295 cells at 10 uM after 48 hrs by SRB assay; conditions: SF-295, 48 h, read-out: GI
[34] = Cytotoxicity against human SF539 cells at 10 uM after 48 hrs by SRB assay; conditions: SF-539, 48 h, read-out: GI
[35] = test system: SNB-19; assay: Cytotoxicity against human SNB19 cells at 10 uM after 48 hrs by SRB assay
[36] = test system: SNB-75; assay: Cytotoxicity against human SNB75 cells at 10 uM after 48 hrs by SRB assay
[37] = test system: U-251; assay: Cytotoxicity against human U251 cells at 10 uM after 48 hrs by SRB assay; conditions: U-251, 48 h, read-out: GI
[38] = Cytotoxicity against human LOXIMVI cells at 10 uM after 48 hrs by SRB assay; conditions: LOX IMVI, read-out: GI
[39] = test system: Malme-3M; assay: Cytotoxicity against human MALME-3M cells at 10 uM after 48 hrs by SRB assay
[40] = test system: M14; assay: Cytotoxicity against human M14 cells at 10 uM after 48 hrs by SRB assay; conditions: M14, 48 h, read-out: GI
[41] = test system: MDA-MB-435; assay: Cytotoxicity against human MDA-MB-435 cells at 10 uM after 48 hrs by SRB assay; conditions: MDA-MB-435, 48 h, read-out: GI
[42] = test system: SK-MEL-2; assay: Cytotoxicity against human SK-MEL-2 cells at 10 uM after 48 hrs by SRB assay
[43] = test system: SK-MEL-28; assay: Cytotoxicity against human SK-MEL-28 cells at 10 uM after 48 hrs by SRB assay
[44] = test system: SK-MEL-5; assay: Cytotoxicity against human SK-MEL-5 cells at 10 uM after 48 hrs by SRB assay; conditions: SK-MEL-5, 48 h, read-out: GI
[45] = Cytotoxicity against human UACC257 cells at 10 uM after 48 hrs by SRB assay; conditions: UACC-257, 48 h, read-out: GI
[46] = Cytotoxicity against human IGROV1 cells at 10 uM after 48 hrs by SRB assay; conditions: IGROV-1, 48 h, read-out: GI
[47] = Cytotoxicity against human OVCAR3 cells at 10 uM after 48 hrs by SRB assay; conditions: OVCAR-3, 48 h, read-out: GI
[48] = Cytotoxicity against human OVCAR4 cells at 10 uM after 48 hrs by SRB assay; conditions: OVCAR-4, 48 h, read-out: GI
[49] = test system: OVCAR-5; assay: Cytotoxicity against human OVCAR5 cells at 10 uM after 48 hrs by SRB assay
[50] = Cytotoxicity against human OVCAR8 cells at 10 uM after 48 hrs by SRB assay; conditions: OVCAR-8, 48 h, read-out: GI
[51] = Cytotoxicity against human NCI-ADR-RES cells at 10 uM after 48 hrs by SRB assay; conditions: read-out: GI
[52] = test system: SK-OV-3; assay: Cytotoxicity against human SKOV3 cells at 10 uM after 48 hrs by SRB assay
[53] = test system: 786-0; assay: Cytotoxicity against human 786-0 cells at 10 uM after 48 hrs by SRB assay; conditions: 786-0, 48 h, read-out: GI
[54] = test system: A498; assay: Cytotoxicity against human A498 cells at 10 uM after 48 hrs by SRB assay; conditions: A498, 48 h, read-out: GI
[55] = test system: ACHN; assay: Cytotoxicity against human ACHN cells at 10 uM after 48 hrs by SRB assay; conditions: read-out: GI

## Cc1nc2cc(Nc3nc(NCCO)nc(Nc4ccc(F)cc4)n3)ccc2n1Cc1ccccc1
[1]
  growth inhibition (GI): inactive
[2]
  inhibition of growth at 10 µM: 9.82%
[3]
  inhibition of growth at 10 µM: 8.89%
[4]
  growth inhibition (GI): inactive
[5]
  inhibition of growth at 10 µM: 21.2%
[6]
  inhibition of growth at 10 µM: 11.5%
[7]
  inhibition of growth at 10 µM: 8.72%
[8]
  inhibition of growth at 10 µM: 19.7%
[9]
  growth inhibition (GI): inactive
[10]
  growth inhibition (GI): inactive
[11]
  inhibition of growth at 10 µM: 34.7%
[12]
  inhibition of growth at 10 µM: 0.84%
[13]
  inhibition of growth at 10 µM: 98.1%
[14]
  growth inhibition (GI): Active
[15]
  inhibition of growth at 10 µM: 80.8%
[16]
  inhibition of growth at 10 µM: 85.8%
[17]
  inhibition of growth at 10 µM: 85.1%
[18]
  inhibition of growth at 10 µM: 25.9%
[19]
  inhibition of growth at 10 µM: 6.05%
[20]
  inhibition of growth at 10 µM: 50.1%
[21]
  inhibition of growth at 10 µM: 8.37%
[22]
  inhibition of growth at 10 µM: 1.09%
[23]
  inhibition of growth at 10 µM: 16.5%
[24]
  inhibition of growth at 10 µM: 14.3%
[25]
  inhibition of growth at 10 µM: 5.46%
[26]
  growth inhibition (GI): inactive
[27]
  inhibition of growth at 10 µM: 23.4%
[28]
  growth inhibition (GI): inactive
[29]
  inhibition of growth at 10 µM: 28.1%
[30]
  inhibition of growth at 10 µM: 19.7%
[31]
  growth inhibition (GI): inactive
[32]
  inhibition of growth at 10 µM: 7.77%
[33]
  inhibition of growth at 10 µM: 13.6%
[34]
  inhibition of growth at 10 µM: 5.61%
[35]
  growth inhibition (GI): inactive
[36]
  growth inhibition (GI): inactive
[37]
  inhibition of growth at 10 µM: 13.7%
[38]
  inhibition of growth at 10 µM: 18.1%
[39]
  growth inhibition (GI): inactive
[40]
  inhibition of growth at 10 µM: 6.95%
[41]
  inhibition of growth at 10 µM: 8.37%
[42]
  growth inhibition (GI): inactive
[43]
  growth inhibition (GI): inactive
[44]
  inhibition of growth at 10 µM: 19.7%
[45]
  inhibition of growth at 10 µM: 1.2%
[46]
  inhibition of growth at 10 µM: 11.1%
[47]
  inhibition of growth at 10 µM: 9.84%
[48]
  inhibition of growth at 10 µM: 4.73%
[49]
  growth inhibition (GI): inactive
[50]
  inhibition of growth at 10 µM: 20%
[51]
  inhibition of growth at 10 µM: 2.28%
[52]
  growth inhibition (GI): inactive
[53]
  inhibition of growth at 10 µM: 5.33%
[54]
  inhibition of growth at 10 µM: 33.8%
[55]
  inhibition of growth at 10 µM: 1.72%
